Results from paper PMC7251927, “Impact of Acute and Chronic Amyloid-β Peptide Exposure on Gut Microbial Commensals in the Mouse” (Frontiers in Microbiology, 2020).

What was measured:
[1] = Gut transition time of orally administered TAMRA-labeled Aβ; format: in vivo, mouse; conditions: 10 μg oral; for Gut segment in which TAMRA fluorescence was detected (2 cm sections, 1 = stomach to 12 = rectal): one animal, technical duplicates
Description: (§1) Animals were lightly anesthetized with Isoflurane and 10 μg of peptide or solvent (10 mM NH4OH) administered slowly into the oral cavity. Mice were kept in manual fixation up to ingestion of the fluid to prevent aspiration.
(§2) Animals were deeply anesthetized with isoflurane and sacrificed by decapitation. For microbiome determination, feces pellets close to the rectum were taken. For assessing fluorescence after feeding of TAMRA-labeled Aβ, the whole gut was placed in ice cold isotonic sodium chloride to prevent further peristalsis movement. Segments of 2 cm length were then chopped starting from the stomach, the content collected by longitudinal opening and stored on ice until further use.
After oral application of TAMRA-labeled Aβ or NH4OH as control and sacrifice of the animals 2, 4, or 24 h later, chyme samples were diluted with 500 μl ice cold PBS, incubated for 5 min and centrifuged. Fluorescence was measured by using 50 μl of the supernatant in duplicates (Exc 540 nm and Em 580 nm, FLUOstar Optima, BMG Labtech GmbH, Ortenberg, Germany) at intervals of 1 min over a period of 1 h at 37°C with shaking before every measurement. The mean of the values of the measurements between 15 and 45 min was used to calculate the difference between the TAMRA-labeled Aβ-treated animals and solvent-treated control animals.
FIGURE 2 Stability and time-dependent localization of per os administered Aβ peptides in the murine gastrointestinal tract. (A) TAMRA-labeled Aβ peptide was incubated in two different concentrations [high (H): 0.025 μM; low (L): 0.005 μM] with PBS-diluted gastric content of wild type mice for 2 h at 37°C. Solvent of the peptide was used as a negative control (–). Additionally, samples with PBS instead of chyme were incubated as described (buffer). Proteins were separated on PAA gel and transferred to nitrocellulose. […] (B) To assess the passage of orally administered Aβ peptides, wild type or 5xFAD mice were fed with 10 μg of TAMRA-labeled Aβ peptides and sacrificed at indicated time points. TAMRA-dependent fluorescence was determined in the chyme of 2 cm gut sections numbered from 1 (oral end = stomach) to 12 (rectal section). Values are presented as measured difference between the TAMRA-Aβ-treated animals and solvent-treated control animals (one animal per time point, technical duplicates).

[2] = tested on: murine fecal microorganisms; experiment: Bacterial viability assay (BacTiter Glo) on diluted fecal samples; format: cell-based, mouse; conditions: 2 μM peptide, 10 min incubation, luminescence, n = 13 animals
Description: Freshly collected fecal pellets were suspended in isotonic sodium chloride solution (0.9%, 100 μl/mg) using a hand-held electric stirrer (Xenox, Fähren, Germany). Aliquots of 50 μl were supplemented with 5 μl of peptide solution in 0.4 mM NH4OH buffered in PBS. After 10 min incubation at room temperature under careful mixing for every 2 min, 20 μl of this suspension were added to 4 ml of thioglycollate bouillon (Becton Dickinson GmbH, Heidelberg, Germany) and kept for overnight at […]. The following day, 1 μl of the diluted fecal suspension was spread on Schaedler agar plates (Becton Dickinson GmbH, Heidelberg, Germany) and incubated for 48 h anaerobically (Anoxomat, Mart Microbiology B.V, Drachten, Netherlands). Lastly, colony forming units (CFU) were counted and normalized to controls from the same donor mouse incubated with scrambled peptide.
After incubation of diluted feces samples with Aβ peptide or scrambled control for plating (see above), additional 1:100 dilutions were prepared and viability measured by using the BacTiter Glo assay as indicated by the vendor (Promega, Mannheim, Germany). Relative luminescence was measured and normalized to controls from the same donor mouse incubated with scrambled peptide.
Viability was measured and calculated in percent of scrambled peptide treated samples (n = 13 animals per group,♂ = 6–7, ♀ = 6–7). […]

gut microbiome = experiment: 16S rDNA sequencing of the gut microbiome after oral peptide application; format: in vivo, mouse; conditions: female wild type mice, 10 μg peptide oral once, feces
Description: as §1, §2

Lactobacillaceae = experiment: Family-specific cultivation, CFU on Petrifilm plates selective for Lactobacillaceae; format: cell-based, mouse; conditions: 2 μM, plates 20 h at 37°C, n = 10–11
Description: (§3) For assessing toxic effects of Aβ on specific microbial families, freshly collected feces was suspended and incubated with 2 μM peptide solution as described above. Afterward, feces suspensions were diluted with 0.9% sodium chloride solution for plating 1 ml on 3M^TM-Petrifilm plates specific for Enterobacteriaceae and Lactobacillaceae (3M Deutschland GmbH, Neuss, Germany). Plates were incubated for 20 h at 37°C. CFU were counted and normalized to samples from the same donor mouse incubated with scrambled peptide.
(§4) Viability was measured and calculated in percent of scrambled peptide treated samples (n = 13 animals per group,♂ = 6–7, ♀ = 6–7). […] Subsequently, aliquots of further diluted bacteria suspension were plated on Schaedler agar and incubated anaerobically for 48 h at 37°C. Number of colony forming units (CFU) of samples treated with scrambled peptide control were set to 100% (n = 7 animals per group; ♂ = 3, ♀ = 4). […] Datapoints for individual normalized measurements are shown in each graph (*p < 0.05; **p < 0.01).

Candida albicans = tested on: Candida albicans; parameters: method as in Soscia et al., 2010; conditions: single microbial species; ref Soscia et al., 2010; cited from earlier work
Enterococcus faecalis = tested on: Enterococcus faecalis; parameters: method as in Soscia et al., 2010; conditions: single microbial species; ref Soscia et al., 2010; cited from earlier work
Enterobacteriaceae = experiment: Family-specific cultivation, CFU on Petrifilm plates selective for Enterobacteriaceae; format: cell-based, mouse; conditions: 2 μM, plates 20 h at 37°C
Description: as §3, §4

| Substance | Gut segment in which TAMRA fluorescence was detected (2 cm sections, 1 = stomach to 12 = rectal) ([1]; 5xFAD transgenic mouse, 2 h after treatment) | Gut segment in which TAMRA fluorescence was detected (2 cm sections, 1 = stomach to 12 = rectal) ([1]; 5xFAD transgenic mouse, 4 h after treatment) | TAMRA fluorescence signal in chyme of gut segments ([1]; wild type and 5xFAD mice, 24 h after treatment, any sample) | Gut segment in which TAMRA fluorescence was detected (2 cm sections, 1 = stomach to 12 = rectal) ([1]; wild type mouse, 4 h after treatment) | Viability of fecal microorganisms vs scrambled peptide treated samples ([2]; fecal samples from transgenic 5xFAD mice) | Viability of fecal microorganisms vs scrambled peptide treated samples ([2]; fecal samples from wild type mice) | Beta diversity, Bray–Curtis dissimilarity (CAP), difference vs scrambled Aβ-fed animals (gut microbiome) | Beta diversity, Jaccard distance based ordination (CAP), vs scrambled Aβ-fed animals (gut microbiome) | Lactobacillaceae CFU vs scrambled peptide control (Lactobacillaceae; fecal material from transgenic 5xFAD mice) | Lactobacillaceae CFU vs scrambled peptide control (Lactobacillaceae; fecal material from wild type mice) | Antimicrobial effect on Candida albicans (Candida albicans) | Antimicrobial effect on Enterococcus faecalis (Enterococcus faecalis) | Enterobacteriaceae CFU vs scrambled peptide control (Enterobacteriaceae; fecal material from transgenic 5xFAD mice, n = 10–11, p = 0.09) | Enterobacteriaceae CFU vs scrambled peptide control (Enterobacteriaceae; fecal material from wild type mice, n = 10–11) |
| --- | --- | --- | --- | --- | --- | --- | --- | --- | --- | --- | --- | --- | --- | --- |
| TAMRA-labeled Aβ42: TAMRA-labeled Aβ peptide (AnaSpec) used for detecting gut transition of Aβ | 11 | 11 | No signal could be detected | 11 | – | – | – | – | – | – | – | – | – | – |
| human Aβ1–42 [Aβ42] | – | – | – | – | no such toxic effect | significantly reduce viability | not significant | significantly differed | no significant effects | significantly reduced | antimicrobial effect | antimicrobial effect | non-significant reduction | significantly reduced |
